In ChEMBL document CHEMBL1201862, “PubChem BioAssay data set” (2004):
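Exposure lasted 48 hours, with cells grown in 96-well plates and compounds tested at five concentrations. GI50 is the concentration that inhibits growth by half.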 The source made the active and inactive calls. Rule as the data show it: active = GI50 up to about 1.1 µM and inactive = higher.

What was measured:
Test in all cases: growth of human tumour cells (NCI), 48 h
T47D = test system: T47D
U-251 = test system: U-251
RPMI-8226 = test system: RPMI-8226
KM12 = test system: KM12
HL-60 = test system: HL-60
COLO 205 = test system: COLO 205
NCI-H23 = test system: NCI-H23
SF-295 = test system: SF-295
EKVX = test system: EKVX
OVCAR-3 = test system: OVCAR-3
SNB-75 = test system: SNB-75
OVCAR-5 = test system: OVCAR-5
UACC-62 = test system: UACC-62
A498 = test system: A498
Malme-3M = test system: Malme-3M
NCI/ADR-RES = test system: NCI/ADR-RES
CAKI-1 = test system: CAKI-1
SF-268 = test system: SF-268
SN12C = test system: SN12C

Row | Compound | GI50 (T47D) | GI50 (U-251) | GI50 (RPMI-8226) | GI50 (KM12) | GI50 (HL-60) | GI50 (COLO 205) | GI50 (NCI-H23) | GI50 (SF-295) | GI50 (EKVX) | GI50 (OVCAR-3) | GI50 (SNB-75) | GI50 (OVCAR-5) | GI50 (UACC-62) | GI50 (A498) | GI50 (Malme-3M) | GI50 (NCI/ADR-RES) | GI50 (CAKI-1) | GI50 (SF-268) | GI50 (SN12C)
1 | COc1ccc(NC2=NCCO2)c2c1CCCC2 | 35.2 µM (inactive) | 25.8 µM (inactive) | 24.6 µM (inactive) | 42.6 µM (inactive) | 15.5 µM (inactive) | 28.2 µM (inactive) | 25.5 µM (inactive) | 27.3 µM (inactive) | 47.8 µM (inactive) | 29.1 µM (inactive) | 27.3 µM (inactive) | 64.9 µM (inactive) | 24.4 µM (inactive) | 61.1 µM (inactive) | 34.1 µM (inactive) | 27.6 µM (inactive) | 54.1 µM (inactive) |  | 
2 | Brc1ccc2c(-c3csc(-c4c[nH]c5ccccc45)n3)c[nH]c2c1 | 24.8 µM (inactive) | 17.9 µM (inactive) | 19.4 µM (inactive) | 14.2 µM (inactive) |  | 12.8 µM (inactive) |  |  | 15.6 µM (inactive) | 13.8 µM (inactive) | 24.4 µM (inactive) | 16.1 µM (inactive) | 18.2 µM (inactive) | 17 µM (inactive) | 16.9 µM (inactive) | 16.8 µM (inactive) | 15.8 µM (inactive) | 18.3 µM (inactive) | 17.3 µM (inactive)
3 | N=C1C(=N)c2ccccc2-c2ccccc21 | 0.419 µM (active) | 1.07 µM (active) | 0.959 µM (active) | 1.85 µM (inactive) | 0.194 µM (active) | 1.73 µM (inactive) | 0.6 µM (active) | 1.62 µM (inactive) | 1.9 µM (inactive) | 0.354 µM (active) | 1.82 µM (inactive) | 2 µM (inactive) | 1.39 µM (inactive) | 2.24 µM (inactive) | 1.19 µM (inactive) | 0.492 µM (active) | 1.71 µM (inactive) | 2.1 µM (inactive) | 1.19 µM (inactive)
4 | O=C1CSC(=S)N1/N=C/c1ccc(Cl)c([N+](=O)[O-])c1 | 23 µM (inactive) | 18.5 µM (inactive) | 21.5 µM (inactive) | 34.2 µM (inactive) | 24.2 µM (inactive) | 43.7 µM (inactive) | 17.9 µM (inactive) | 24.8 µM (inactive) | 27.9 µM (inactive) | 20.1 µM (inactive) | 45 µM (inactive) | > 100 µM (inactive) | 25.9 µM (inactive) | 61 µM (inactive) | 19.1 µM (inactive) | 22.6 µM (inactive) | 33.7 µM (inactive) | 19.6 µM (inactive) | 25.8 µM (inactive)
5 | Cc1ccc(S(=O)(=O)N(CC(O)COc2ccccc2)c2c(F)cccc2F)cc1 (centres undefined) | 2.21 µM (inactive) | 15.7 µM (inactive) | 14.4 µM (inactive) | 17.7 µM (inactive) | 29.4 µM (inactive) | 14.7 µM (inactive) | 18.5 µM (inactive) | 29.2 µM (inactive) | 23.3 µM (inactive) | 11.6 µM (inactive) | 18.9 µM (inactive) | 38 µM (inactive) | 14.8 µM (inactive) | 19.6 µM (inactive) | 21 µM (inactive) | 17.5 µM (inactive) | 14.3 µM (inactive) | 17.1 µM (inactive) | 21.1 µM (inactive)
6 | Cc1cc(N(CCC#N)CCC#N)ccc1C(/N=N/c1ccccc1)=N\NC(=O)c1ccccc1 | 5.2 µM (inactive) | 35.7 µM (inactive) | 42.7 µM (inactive) | 18.1 µM (inactive) | 35.7 µM (inactive) | 20.4 µM (inactive) | 30.5 µM (inactive) | 11.6 µM (inactive) | 39.4 µM (inactive) | 30.3 µM (inactive) | 48.6 µM (inactive) | 86.9 µM (inactive) | 2.77 µM (inactive) | 24.6 µM (inactive) | 34 µM (inactive) | 20.2 µM (inactive) | 28.2 µM (inactive) | 42.8 µM (inactive) | 43.9 µM (inactive)
7 | COC(=O)c1cc(C#N)[nH]c1-c1cccs1 | 24.4 µM (inactive) | > 100 µM (inactive) | 36.6 µM (inactive) | > 100 µM (inactive) |  | > 100 µM (inactive) | 58.1 µM (inactive) | 86.5 µM (inactive) | 91.2 µM (inactive) | 56.5 µM (inactive) | 25.8 µM (inactive) | > 100 µM (inactive) | 97.7 µM (inactive) | 37.8 µM (inactive) |  | 33.7 µM (inactive) | 56.8 µM (inactive) | > 100 µM (inactive) | > 100 µM (inactive)
8 | NC1=CN(Cc2ccccc2)C2=N/C(=C\c3ccccc3O)C(=O)N12 | 94.4 µM (inactive) | 71.6 µM (inactive) | 75.7 µM (inactive) | > 100 µM (inactive) | > 100 µM (inactive) | > 100 µM (inactive) | > 100 µM (inactive) | > 100 µM (inactive) | 52.1 µM (inactive) | > 100 µM (inactive) | > 100 µM (inactive) | > 100 µM (inactive) | > 100 µM (inactive) | > 100 µM (inactive) | > 100 µM (inactive) | > 100 µM (inactive) | > 100 µM (inactive) | > 100 µM (inactive) | > 100 µM (inactive)
9 | COc1ccc(-c2cc(-c3ccccc3)nc3c2CC(=O)Nc2ccccc2-3)cc1OC | > 68.9 µM (inactive) | 4.17 µM (inactive) | > 100 µM (inactive) | > 100 µM (inactive) |  | > 27.9 µM (inactive) | > 100 µM (inactive) | > 100 µM (inactive) | > 100 µM (inactive) | 4.07 µM (inactive) | 0.424 µM (active) | > 100 µM (inactive) | > 100 µM (inactive) | 1.89 µM (inactive) |  | 1.37 µM (inactive) | > 100 µM (inactive) | 0.933 µM (active) | 1.26 µM (inactive)
10 | CCOC(=O)/C(=C\n1c(=O)sc2ccccc21)C(=O)c1ccccc1 | 22.4 µM (inactive) | > 100 µM (inactive) | 39.6 µM (inactive) | > 100 µM (inactive) | 33.5 µM (inactive) | > 100 µM (inactive) | > 100 µM (inactive) | 88.1 µM (inactive) | > 100 µM (inactive) |  | 53.8 µM (inactive) | > 100 µM (inactive) | > 100 µM (inactive) | > 100 µM (inactive) | > 100 µM (inactive) | > 100 µM (inactive) | 25.4 µM (inactive) | > 100 µM (inactive) | > 100 µM (inactive)
11 | COP(=O)(OC)C1=c2c(C)noc2=C2C=COC2C1=O (centres undefined) | > 10 µM (inactive) | > 100 µM (inactive) | > 100 µM (inactive) | > 100 µM (inactive) | > 100 µM (inactive) | > 100 µM (inactive) | > 100 µM (inactive) | > 100 µM (inactive) | > 100 µM (inactive) | > 100 µM (inactive) | 94.6 µM (inactive) | > 100 µM (inactive) | > 100 µM (inactive) | > 100 µM (inactive) | > 100 µM (inactive) | > 100 µM (inactive) | > 100 µM (inactive) | > 100 µM (inactive) | > 100 µM (inactive)
12 | COC(=O)CCc1ccc2c(c1)C(=O)CC2 | > 100 µM (inactive) | > 100 µM (inactive) | > 100 µM (inactive) |  | > 100 µM (inactive) |  | > 100 µM (inactive) | > 100 µM (inactive) | > 100 µM (inactive) | > 100 µM (inactive) | 29.7 µM (inactive) | > 100 µM (inactive) |  | > 100 µM (inactive) | > 100 µM (inactive) | > 100 µM (inactive) |  | > 100 µM (inactive) | 
13 | C#CCN(C(=O)C(F)(F)F)C(/C=C\C(=O)OC)(C(=O)OCC)C(=O)OCC | > 100 µM (inactive) | > 100 µM (inactive) | > 100 µM (inactive) | > 100 µM (inactive) | > 100 µM (inactive) | > 10 µM (inactive) | > 100 µM (inactive) | > 100 µM (inactive) | > 100 µM (inactive) | > 100 µM (inactive) | > 100 µM (inactive) | > 100 µM (inactive) | > 100 µM (inactive) | > 100 µM (inactive) | > 100 µM (inactive) | > 100 µM (inactive) |  | > 100 µM (inactive) | > 100 µM (inactive)
14 | Cn1c(N(CCO)CCO)cnc1[N+](=O)[O-] | > 100 µM (inactive) | > 100 µM (inactive) | > 100 µM (inactive) | > 100 µM (inactive) | > 100 µM (inactive) | > 100 µM (inactive) | > 100 µM (inactive) | > 100 µM (inactive) | > 100 µM (inactive) | > 100 µM (inactive) | > 100 µM (inactive) | > 100 µM (inactive) | > 100 µM (inactive) | > 100 µM (inactive) | > 100 µM (inactive) | > 100 µM (inactive) | > 100 µM (inactive) | > 100 µM (inactive) | 
15 | CCOC(=O)c1cn2c(n1)sc1cc(C)c(C)cc12 | 25.5 µM (inactive) | 18.6 µM (inactive) | 25.6 µM (inactive) | 15 µM (inactive) |  | 26.5 µM (inactive) | 35.7 µM (inactive) | 32 µM (inactive) | 22.3 µM (inactive) | 17.5 µM (inactive) | 22.6 µM (inactive) | 16.8 µM (inactive) | 28.3 µM (inactive) | 17.1 µM (inactive) | 17.3 µM (inactive) | 27.7 µM (inactive) | 20.6 µM (inactive) | 24 µM (inactive) | 19.1 µM (inactive)
16 | CN(C)CCCNc1ccnc2cc([N+](=O)[O-])ccc12 | 5.98 µM (inactive) | 23.7 µM (inactive) | 59.2 µM (inactive) | 10.2 µM (inactive) |  | 2.65 µM (inactive) | 11.7 µM (inactive) | 20.4 µM (inactive) |  | 5.11 µM (inactive) | 23.3 µM (inactive) | 20.7 µM (inactive) | 18.8 µM (inactive) | 17.2 µM (inactive) | 3.44 µM (inactive) | 20 µM (inactive) | 26.9 µM (inactive) | 21 µM (inactive) | 17.2 µM (inactive)
